Data from patent US10294234B2, “HIV inhibitor compounds” (priority 2017, dated 2019).
Like-named read-outs stand apart in the source and are kept apart here.

Key:
[1] = tested on: HIV-1 (IIIB) in MT-4 cells; assay: MT-4 HIV assay; type: cell-based
In short: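 Antiviral activity was read by Cell Titer Glo after a 5-day, 37 °C culture of MT-4 cells pre-infected with a 1:250 dilution of HIV-1 (IIIB). Compounds were tested as threefold dilution series in complete RPMI. Controls were no drug, mock infection and 5 uM AZT.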

[2] = In short: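 Each compound (1 uM) is incubated in duplicate with 0.5 mg/mL liver microsomal protein from dog, rat or human plus NADPH-regenerating system. Samples taken at 2, 12, 25, 45 and 65 minutes are deproteinised and quantified by LC/MS/MS. Half-life gives Clint.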
[3] = Human immunodeficiency virus 1, MT4, 120 h, HIV-1 (IIIB), MT-4 cells, 5 days, Cell Titer Glo, read-out: EC50
[4] = human liver microsomes 0.5 mg/mL, 1 uM compound, NADPH
[5] = rat liver microsomes 0.5 mg/mL, 1 uM compound, NADPH

SMILES	EC50 [1, 3]	Human Pred Cl. ([2]; human, microsomes)	EC50 ([1]; Human immunodeficiency virus 1, MT4, 120 h)	Human Pred Cl. [2, 4]	Rat. Pred. Cl. [2, 5]	Rat. Pred. Cl. ([2]; rat, microsomes)	EC50 ([1]; HIV-1 (IIIB), MT-4 cells, 5 days, Cell Titer Glo, read-out: EC50)
COC(=O)N[C@H](C(=O)N[C@@H](Cc1ccc(C#Cc2cnc(N3CC4CCC(C3)N4C3COC3)nc2)cc1)[C@@H](O)CN(Cc1ccc(-c2ccn(C(F)F)n2)cc1)NC(=O)[C@@H](NC(=O)OC)C(C)(C)C(F)(F)F)C(C)(C)C(F)(F)F [Example 122, Methyl ((5S,8S,9S,14S)-11-(4-(1-(difluoromethyl)-1H-pyrazol-3-yl)benzyl)-16,16,16-trifluoro-9-hydroxy-15,15-dimethyl-8-(4-((2-(8-(oxetan-3-yl)-3,8-diazabicyclo[3.2.1]octan-3-yl)pyrimidin-5-yl)ethynyl)benzyl)-3,6,13-trioxo-5-(1,1,1-trifluoro-2-methylpropan-2-yl)-2-oxa-4,7,11,12-tetraazahexadecan-14-yl)carbamate]	4.57 nM	<0.11 L/H/kg					
COC(=O)N[C@H](C(=O)N[C@@H](Cc1ccc(C#Cc2cnc(N3CCNC(=O)C3)nc2)cc1)[C@@H](O)CN(Cc1c(F)cc(-c2ccn(C(F)F)n2)cc1F)NC(=O)[C@@H](NC(=O)OC)C(C)(C)C(F)(F)F)C(C)(C)C(F)(F)F [Example 123, Methyl ((5S,8S,9S,14S)-11-(4-(1-(difluoromethyl)-1H-pyrazol-3-yl)-2,6-difluorobenzyl)-16,16,16-trifluoro-9-hydroxy-15,15-dimethyl-3,6,3-trioxo-8-(4-((2 (3-oxopiperazin-1-yl)pyrimidin-5-yl)ethynyl)benzyl)-5-(1,1,1-trifluoro-2-methylpropan-2-yl)-2-oxa-4,7,11,12-tetraazahexadecan-14-yl)carbamate]			4.16 nM	<0.11 L/H/kg	<0.18 L/H/kg		
COCCN1C2CCC1CN(c1ccc(C#Cc3ccc(C[C@H](NC(=O)[C@@H](NC(=O)OC)C(C)(C)C(F)(F)F)[C@@H](O)CN(Cc4c(F)cc(-c5ccn(C(F)F)n5)cc4F)NC(=O)[C@@H](NC(=O)OC)C(C)(C)C(F)(F)F)cc3)cn1)C2 [Example 124, Methyl ((5S,8S,9S,14S)-11-(4-(1-(difluoromethyl)-1H-pyrazol-3-yl)-2,6-difluorobenzyl)-16,16,16-trifluoro-9-hydroxy-8-(4-((6-(8-(2-methoxyethyl)-3,8-diazabicyclo[3.2.1]octan-3-yl)pyridin-3-yl)ethynyl)benzyl)-15,15-dimethyl-3,6,13-trioxo-5-(1,1,1-trifluoro-2-methylpropan-2-yl)-2-oxa-4,7,11,12-tetraazahexadecan-14-yl)carbamate]	6.32 nM	<0.11 L/H/kg				0.5 L/H/kg	
COC(=O)N[C@H](C(=O)N[C@@H](Cc1ccc(C#Cc2ccc(N3CC4CCC(C3)N4C3COC3)nc2)cc1)[C@@H](O)CN(Cc1c(F)cc(-c2cc[nH]n2)cc1F)NC(=O)[C@@H](NC(=O)OC)C(C)(C)C(F)(F)F)C(C)(C)C(F)(F)F [Example 126, Methyl ((5S,8S,9S,14S)-11-(2,6-difluoro-4-(1H-pyrazol-3-yl)benzyl)-16,16,16-trifluoro-9-hydroxy-15,15-dimethyl-8-(4-((6-(8-(oxetan-3-yl)-3,8-diazabicyclo[3.2.1]octan-3-yl)pyridin-3-yl)ethynyl)benzyl)-3,6,13-trioxo-5-(1,1,1-trifluoro-2-methylpropan-2-yl)-2-oxa-4,7,11,12-tetraazahexadecan-14-yl)carbamate]	4.13 nM	0.45 L/H/kg				<0.18 L/H/kg	
COC(=O)N[C@H](C(=O)N[C@@H](Cc1ccc(C#Cc2ccc(N3CC4CCC(C3)N4C3COC3)nc2)cc1)[C@@H](O)CN(Cc1c(F)cc(-c2cc(OC3COC3)ccn2)cc1F)NC(=O)[C@@H](NC(=O)OC)C(C)(C)C(F)(F)F)C(C)(C)C(F)(F)F [Example 127, Methyl ((5S,8S,9S,14S)-11-(2,6-difluoro-4-(4-(oxetan-3-yloxy)pyridin-2-yl)benzyl)-16,16,16-trifluoro-9-hydroxy-15,15-dimethyl-8-(4-((6-(8-(oxetan-3-yl)-3,8-diazabicyclo[3.2.1]octan-3-yl)pyridin-3-yl)ethynyl)benzyl)-3,6,13-trioxo-5-(1,1,1-trifluoro-2-methylpropan-2-yl)-2-oxa-4,7,11,12-tetraazahexadecan-14-yl)carbamate]	4.19 nM	0.54 L/H/kg				1.3 L/H/kg	
COC(=O)N[C@H](C(=O)N[C@@H](Cc1ccc(C#Cc2ccc(N3CC4CCC(C3)N4C3COC3)nc2)cc1)[C@@H](O)CN(Cc1c(F)cc(-c2nnc(C3CC3)o2)cc1F)NC(=O)[C@@H](NC(=O)OC)C(C)(C)C(F)(F)F)C(C)(C)C(F)(F)F [Example 129, Methyl ((5S,8S,9S,14S)-11-(4-(5-cyclopropyl-1,3,4-oxadiazol-2-yl)-2,6-difluorobenzyl)-16,16,16-trifluoro-9-hydroxy-15,15-dimethyl-8-(4-((6-(8-(oxetan-3-yl)-3,8-diazabicyclo[3.2.1]octan-3-yl)pyridin-3-yl)ethynyl)benzyl)-3,6,13-trioxo-5-(1,1,1-trifluoro-2-methylpropan-2-yl)-2-oxa-4,7,11,12-tetraazahexadecan-14-yl)carbamate]	3.62 nM	<0.11 L/H/kg					
COC(=O)N[C@H](C(=O)NNC[C@H](O)[C@H](Cc1ccc(C#Cc2cnc(N3CC4CCC(C3)N4C3COC3)nc2)cc1)NC(=O)[C@@H](NC(=O)OCCc1c(F)cc(-c2cn(C34CC(C3)C4)nn2)cc1F)C(C)(C)C(F)(F)F)C(C)(C)C(F)(F)F [Example 131, Methyl ((5S,8S,9S,14S)-1-(4-(1-(bicyclo[1.1.1]pentan-1-yl)-1H-1,2,3-triazol-4-yl)-2,6-difluorobenzyl)-16,16,16-trifluoro-9-hydroxy-15,15-dimethyl-8-(4-((2-(8-(oxetan-3-yl)-3,8-diazabicyclo[3.2.1]octan-3-yl)pyrimidin-5-yl)ethynyl)benzyl)-3,6,13-trioxo-5-(1,1,1-trifluoro-2-methylpropan-2-yl)-2-oxa-4,7,11,12-tetraazahexadecan-14-yl)carbamate]	5.24 nM	<0.11 L/H/kg					
COC(=O)N[C@H](C(=O)N[C@@H](Cc1ccc(C#Cc2cnc(N3CC4CCC(C3)N4C3COC3)nc2)cc1)[C@@H](O)CN(Cc1c(F)cc(-c2cn(C(F)F)cn2)cc1F)NC(=O)[C@@H](NC(=O)OC)C(C)(C)C(F)(F)F)C(C)(C)C(F)(F)F [Example 133, Methyl ((5S,10S,11S,14S)-8-(4-(1-(difluoromethyl)-1H-imidazol-4-yl)-2,6-difluorobenzyl)-16,16,16-trifluoro-10-hydroxy-15,15-dimethyl-11-(4-((2-(8-(oxetan-3-yl)-3,8-diazabicyclo[3.2.]octan-3-yl)pyrimidin-5-yl)ethynyl)benzyl)-3,6,13-trioxo-5-(1,1,1-trifluoro-2-methylpropan-2-yl)-2-oxa-4,7,8,12-tetraazahexadecan-14-yl)carbamate]				<0.11 L/H/kg	<0.18 L/H/kg		3.44 nM
COC(=O)N[C@H](C(=O)N[C@@H](Cc1ccc(C#Cc2ccc(-c3cn4c(n3)CN(C)C(=O)C4)cc2)cc1)[C@@H](O)CN(Cc1c(F)cc(-c2ccn(C(F)F)n2)cc1F)NC(=O)[C@@H](NC(=O)OC)C(C)(C)C(F)(F)F)C(C)(C)C(F)(F)F [Example 134, Methyl ((5S,8S,9S,14S)-11-(4-(1-(difluoromethyl)-1H-pyrazol-3-yl)-2,6-difluorobenzyl)-16,16,16-trifluoro-9-hydroxy-15,15-dimethyl-8-(4-((4-(7-methyl-6-oxo-5,6,7,8-tetrahydroimidazo[1,2-a]pyrazin-2-yl)phenyl)ethynyl)benzyl)-3,6,13-trioxo-5-(1,1,1-trifluoro-2-methylpropan-2-yl)-2-oxa-4,7,11,12-tetraazahexadecan-14-yl)carbamate]	5.52 nM			<0.11 L/H/kg	<0.18 L/H/kg		
COC(=O)N[C@H](C(=O)N[C@@H](Cc1ccc(C#Cc2ccc(N3C[C@H]4C[C@@H]3CN4C3COC3)nc2)cc1)[C@@H](O)CN(Cc1c(F)cc(-c2cc(F)ccn2)cc1F)NC(=O)[C@@H](NC(=O)OC)C(C)(C)C(F)(F)F)C(C)(C)C(F)(F)F [Example 138, Methyl ((5S,8S,9S,14S)-11-(2,6-difluoro-4-(4-fluoropyridin-2-yl)benzyl)-16,16,16-trifluoro-9-hydroxy-15,15-dimethyl-8-(4-((6-((1R,4R)-5-(oxetan-3-yl)-2,5-diazabicyclo[2.2.1]heptan-2-yl)pyridin-3-yl)ethynyl)benzyl)-3,6,13-trioxo-5-(1,1,1-trifluoro-2-methylpropan-2-yl)-2-oxa-4,7,11,12-tetraazahexadecan-14-yl)carbamate]	2.32 nM			0.17 L/H/kg	0.95 L/H/kg		
COC(=O)N[C@H](C(=O)N[C@@H](Cc1ccc(C#Cc2ccc(N3CC4CCC(C3)N4C3(C)COC3)nc2)cc1)[C@@H](O)CN(Cc1c(F)cc(-c2ccn(C(F)F)n2)cc1F)NC(=O)[C@@H](NC(=O)OC)C(C)(C)C(F)(F)F)C(C)(C)C(F)(F)F [Example 144, Methyl ((5S,8S,9S,14S)-11-(4-(1-(difluoromethyl)-1H-pyrazol-3-yl)-2,6-difluorobenzyl)-16,16,16-trifluoro-9-hydroxy-15,15-dimethyl-8-(4-((6-(8-(3-methyloxetan-3-yl)-3,8-diazabicyclo[3.2.1]octan-3-yl)pyridin-3-yl)ethynyl)benzyl)-3,6,13-trioxo-5-(1,1,1-trifluoro-2-methylpropan-2-yl)-2-oxa-4,7,11,12-tetraazahexadecan-14-yl)carbamate]	5.12 nM	0.95 L/H/kg					
